Results published in patent US4670444A, “7-amino-1-cyclopropyl-4-oxo-1, 4-dihydro-quinoline-and naphthyridine-3-carboxylic acids and antibacterial agents containing these compounds” (Bayer Aktiengesellschaft, priority 1980, dated 1987).
Converted amounts (≈) assume the structure as drawn. Like-named read-outs stand apart in the source and are kept apart here.

Key:
Assay type in all cases: cell-based
[1] = system: Staphylococcus aureus 133; assay: Agar dilution test, DST medium; conditions: 1-2 × 10^3 germs/plate
Source text: (§2) DST (dexhase sensitivity test) medium; 1-2 × 10^3 germs/plate

E. coli A 261 = assay: Agar dilution test, DST medium; conditions: 1-2 × 10^3 germs/plate
Source text: as §2

E. coli Neum. = assay: Agar dilution test, DST medium; conditions: 1-2 × 10^3 germs/plate
Source text: as §2

Klebsiella 8085 = assay: Agar dilution test, DST medium; conditions: 1-2 × 10^3 germs/plate
Source text: as §2

Proteus 1017 = assay: Agar dilution test, DST medium; conditions: 1-2 × 10^3 germs/plate
Source text: as §2

Pseudomonas aeruginasa = assay: Agar dilution test, DST medium; conditions: 1-2 × 10^3 germs/plate
Source text: as §2

Escherichia coli 103400 = assay: Agar dilution test, Denley multipoint inoculation method
Source text: (§1) | ^x Denley multipoint inoculation method

Escherichia coli 455/7 = assay: as above
Source text: as §1

Escherichia coli T 7 = assay: as above; conditions: T7, read-out: Minimum inhibitory concentrations in an agar dilution test
Source text: as §1

Klebsiella 63 = assay: as above
Source text: as §1

Proteus 8228 = assay: as above; conditions: read-out: Minimum inhibitory concentrations in an agar dilution test
Source text: as §1

Pseudomonas 7167 = assay: as above; conditions: read-out: Minimum inhibitory concentrations in an agar dilution test
Source text: as §1

Salmonella 683 = assay: as above; conditions: read-out: Minimum inhibitory concentrations in an agar dilution test
Source text: as §1

[2] = Escherichia coli 103400, Denley multipoint inoculation method, read-out: Minimum inhibitory concentrations in an agar dilution test
[3] = Escherichia coli 455/7, Denley multipoint inoculation method, read-out: Minimum inhibitory concentrations in an agar dilution test
[4] = Klebsiella 63, Denley multipoint inoculation method, read-out: Minimum inhibitory concentrations in an agar dilution test
[5] = Proteus 8228, Denley multipoint inoculation method

Row | SMILES | antibacterial action in agar dilution test [1] | antibacterial action in agar dilution test (E. coli A 261) | antibacterial action in agar dilution test (E. coli Neum.) | antibacterial action in agar dilution test (Klebsiella 8085) | antibacterial action in agar dilution test (Proteus 1017) | antibacterial action in agar dilution test (Pseudomonas aeruginasa) | MIC (Escherichia coli 103400; [2]) [µg/mL] | MIC (Escherichia coli 455/7; [3]) [µg/mL] | MIC (Escherichia coli T 7) [µg/mL] | MIC (Klebsiella 63; [4]) [µg/mL] | MIC (Proteus 8228; [5]) [µg/mL] | MIC (Pseudomonas 7167) [µg/mL] | MIC (Salmonella 683) [µg/mL] | MIC (Escherichia coli 103400; Escherichia coli, 103400, read-out: Minimum inhibitory concentrations in an agar dilution test) [µg/mL] | MIC (Escherichia coli 455/7; Escherichia coli, 455/7, read-out: Minimum inhibitory concentrations in an agar dilution test) [µg/mL] | MIC (Klebsiella 63; Klebsiella, 63, read-out: Minimum inhibitory concentrations in an agar dilution test) [µg/mL] | MIC (Proteus 8228) [µg/mL]
1 | O=C(O)c1cn(C2CC2)c2cc(N3CCNCC3)ncc2c1=O | 8 | 1 | 1 | 1 | 0.5 | 4 |  |  |  |  |  |  |  |  |  |  | 
2 | CCn1cc(C(=O)O)c(=O)c2cc(F)c(N3CCNCC3)cc21 | 1 | 0.125 | 0.25 | 0.25 | 0.06 | 1 |  |  |  |  |  |  |  |  |  |  | 
3 | O=C(O)c1cn(C2CC2)c2cc(N3CCNCC3)c(F)cc2c1=O [1-cyclopropyl-6-fluoro-1,4-dihydro-4-oxo-7-piperazino-quinoline-3-carboxylic acid] | 0.25-0.5 | 0.06 | 0.06 | 0.06 | 0.03 | 0.5 |  |  |  |  |  |  |  |  |  |  | 
4 | CN1CCN(c2cc3c(cn2)c(=O)c(C(=O)O)cn3C2CC2)CC1 [Example 1, 7-(4-Methylpiperazino)-1-cyclopropyl-4-oxo-1,4-dihydro-1,6-naphthyridine-3-carboxylic acid] |  |  |  |  |  |  | 0.25 (≈ 0.761 µM) | 128 (≈ 390 µM) | 0.25 (≈ 0.761 µM) | 1 (≈ 3.05 µM) | 2 (≈ 6.09 µM) | 8 (≈ 24.4 µM) | 0.5 (≈ 1.52 µM) |  |  |  | 
5 | CCn1cc(C(=O)O)c(=O)c2ccc(C)nc21 [Nalidixic acid, 1-ethyl-7-methyl-1,8-naphthyrid-4-one-3-carboxylic acid] |  |  |  |  |  |  |  |  | 1 (≈ 4.31 µM) |  |  | 64 (≈ 276 µM) | 4 (≈ 17.2 µM) | 2 (≈ 8.61 µM) | 256 (≈ 1100 µM) | 4 (≈ 17.2 µM) | 8 (≈ 34.4 µM)
6 | CCn1cc(C(=O)O)c(=O)c2cnc(N3CCNCC3)nc21 [Pipemidic acid, 2-piperazino-8-ethyl-5-oxo-5,8-dihydropyrido 2,3-d pyrimidine-6-carboxylicacid] |  |  |  |  |  |  | 1 (≈ 3.3 µM) | 128 (≈ 422 µM) | 2 (≈ 6.59 µM) | 2 (≈ 6.59 µM) | 4 (≈ 13.2 µM) | 16 (≈ 52.7 µM) | 2 (≈ 6.59 µM) |  |  |  | 
